# “Also recorded” adds a separate entry of the source.
# Columns and labels:
# [1] = test system: ROS in Col‐0 and fer‐4 roots; assay: ROS detection in plant roots (H2DCF-DA fluorescence); conditions: 5 μM for 15 min, vs DMSO and lapatinib
# [2] = test system: Aurora C; conditions: read-out: IC50 for Aurora C; ref D'Alise et al., [2008]; cited from earlier work
# [3] = test system: tobacco; assay: Growth of tobacco (shoot and root fresh weight, Day 25); conditions: 5 μM irrigated twice
# [4] = test system: Arabidopsis Col‐0 and fer‐4 seedlings; assay: Growth of Arabidopsis seedlings (root length, shoot fresh weight); conditions: 5 μM for 3 days, vs ddH2O (mock) and lapatinib
# [5] = biological target: FER‐CD (Arabidopsis thaliana, UniProt Q9SCZ4); assay: biochemical
# [6] = test system: CERK1; assay: CERK1-CD kinase activity; type: biochemical, Arabidopsis
# Excerpt: (§1) Fig. S10. […] (a) Effects of FER inhibitors on the kinase activity of the Arabidopsis receptor kinase PEPR1 and CERK1 cytoplasmic domains (CDs). […] AT1G73080. […] AT3G21630. DMSO (0.05%; v/v) was used as a negative control. The data are shown as the means ± SDs (n = 4). The assay was repeated three times with similar results. ***, […]) Protein purification of PEPR1-CD and CERK1-CD. […] In (c and d), the data are presented as the means ± SDs of three biological replicates.
# [7] = test system: PEPR1; assay: PEPR1-CD kinase activity; type: biochemical, Arabidopsis
# Excerpt: as §1
# [8] = test system: Ralstonia solanacearum; type: in vivo, tomato; conditions: roots pretreated twice with 3 mL of 5 μM
# [9] = test system: Aurora A; conditions: read-out: IC50 for Aurora A; ref D'Alise et al., [2008]; cited from earlier work
# [10] = test system: ANJEA‐CD; assay: ANJEA-CD kinase activity (autophosphorylation); type: biochemical, Arabidopsis thaliana; conditions: 5 μM
# [11] = test system: Aurora B; conditions: read-out: IC50 for Aurora B; ref D'Alise et al., [2008]; cited from earlier work
# [12] = test system: FER cytoplasmic domain (FER‐CD); assay: FER-CD kinase activity (autophosphorylation), high-throughput screening, Kinase-Lumi luminescent ATP consumption; type: biochemical, Arabidopsis thaliana; conditions: in vitro autophosphorylation
# [13] = test system: Ralstonia solanacearum; type: in vivo, tobacco; conditions: roots pretreated twice with 3 mL of 5 μM
# [14] = biological target: EGFR‐associated tyrosine kinase; parameters: method as in Hsu et al., [1991]; conditions: ref Hsu et al., [1991]; cited from earlier work
# Sequence of FER‐CD (Q9SCZ4 469-895): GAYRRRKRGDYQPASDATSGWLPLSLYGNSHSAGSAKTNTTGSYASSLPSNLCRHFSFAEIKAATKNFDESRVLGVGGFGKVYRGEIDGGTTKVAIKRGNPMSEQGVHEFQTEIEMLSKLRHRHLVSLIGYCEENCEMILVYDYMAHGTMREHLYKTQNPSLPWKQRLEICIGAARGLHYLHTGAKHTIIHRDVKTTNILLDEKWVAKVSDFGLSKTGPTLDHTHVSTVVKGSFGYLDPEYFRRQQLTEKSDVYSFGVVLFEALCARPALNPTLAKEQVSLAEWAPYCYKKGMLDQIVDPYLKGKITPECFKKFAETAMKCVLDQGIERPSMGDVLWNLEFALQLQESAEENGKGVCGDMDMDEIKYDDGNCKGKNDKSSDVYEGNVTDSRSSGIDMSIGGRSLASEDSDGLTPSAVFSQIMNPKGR
SMILES,Production of ROS in Col-0 roots [1],IC50 [2] [nM],Growth (biomass) of tobacco shoots and roots [3],Growth of roots and shoots of Arabidopsis Col-0 seedlings [4],Kd [5] [nM],Effect on CERK1 kinase activity [6],Effect on PEPR1 kinase activity [7],Control of tomato bacterial wilt [8],IC50 [9] [nM],Inhibition rate of ANJEA-CD kinase activity [10],IC50 [11] [nM],Effect on FER kinase activity [12],Control of tobacco bacterial wilt [13],IC50 for EGFR-associated tyrosine kinase [14]
c1nc2nc(Nc3ccc(N4CCOCC4)cc3)nc(NC3CCCCC3)c2[nH]1 [Reversine],significantly increased the production of ROS,[…],did not observably affect the biomass,did not affect the growth of roots and shoots,1770,did not affect the kinase activity,did not affect the kinase activity,alleviated soil‐borne diseases,[…],lower than 55%,[…],inhibited the kinase activity of FER,alleviated tobacco bacterial wilt; also recorded: alleviated soil‐borne diseases,–
O=C(O)c1cc(N(Cc2ccccc2O)Cc2cc(O)ccc2O)ccc1O [Lavendustin A],significantly increased the production of ROS,–,significantly improved the growth of tobacco shoots and roots,significantly promoted root and shoot growth,2690,did not affect the kinase activity,did not affect the kinase activity,best control effect; also recorded: alleviated soil‐borne diseases,–,lower than 55%,–,inhibited the kinase activity of FER,alleviated tobacco bacterial wilt; also recorded: alleviated soil‐borne diseases,"Lavendustin A (RG‐14355), isolated from Streptomyces Griseolavendus, is a potent, specific and ATP‐competitive inhibitor of tyrosine kinase, with an IC50 of 11 ng/mL for EGFR‐associated tyrosine kinase (Hsu et al., [1991])"
